In paper PMC10134988, “An Arylbenzofuran, Stilbene Dimers, and Prenylated Diels–Alder Adducts as Potent Diabetic Inhibitors from Morus bombycis Leaves” (Antioxidants, 2023):
Where two headings read alike, the source gives them in different places.

Columns and labels:
[1] = molecular target: α-glucosidase; test: α-Glucosidase inhibitory activity; type: biochemical, Saccharomyces cerevisiae; conditions: isolated compounds; mean ± SD, triplicate
Text: (§1) Protein tyrosine phosphatase 1B (PTP1B) was purchased from ENZO (Farmingdale, NY, USA). Human recombinant AR (0.4 units) was purchased from Wako Chemicals (Osaka, Japan). Citric acid trisodium salt dehydrate, citric acid monohydrate, sodium carbonate anhydrous, sodium chloride, sodium phosphate dibasic anhydrous, and sodium phosphate monobasic dehydrate were purchased from SAMCHUN (Seoul, Korea). Peroxynitrite (ONOO^−), 3-[(3-cholamidopropyl)dimethylammonio]-1-propanesulfonate (CHAPS), and sodium azide were purchased from Bio-Rad Laboratories Calbiochem (San Diego, CA, USA), GENERAY BIOTECH (Shanghai, China), and JUNSEI (Chuoku, Tokyo, Japan), respectively.
(§2) The enzyme inhibition study was executed spectrophotometrically following the previous literature.

[2] = molecular target: T1, PTP1B (Homo sapiens, UniProt P18031); test: PTP1B enzyme kinetics (Lineweaver–Burk and Dixon plots); type: biochemical; conditions: substrate pNPP; for Ki: Dixon plots, read-out: PTP1B Inhibition Constant (Ki); for PTP1B Inhibition Mode: Lineweaver–Burk plots
T1 construct: purchased ENZO (Farmingdale, NY, USA)
T1 sequence (P18031 1-435): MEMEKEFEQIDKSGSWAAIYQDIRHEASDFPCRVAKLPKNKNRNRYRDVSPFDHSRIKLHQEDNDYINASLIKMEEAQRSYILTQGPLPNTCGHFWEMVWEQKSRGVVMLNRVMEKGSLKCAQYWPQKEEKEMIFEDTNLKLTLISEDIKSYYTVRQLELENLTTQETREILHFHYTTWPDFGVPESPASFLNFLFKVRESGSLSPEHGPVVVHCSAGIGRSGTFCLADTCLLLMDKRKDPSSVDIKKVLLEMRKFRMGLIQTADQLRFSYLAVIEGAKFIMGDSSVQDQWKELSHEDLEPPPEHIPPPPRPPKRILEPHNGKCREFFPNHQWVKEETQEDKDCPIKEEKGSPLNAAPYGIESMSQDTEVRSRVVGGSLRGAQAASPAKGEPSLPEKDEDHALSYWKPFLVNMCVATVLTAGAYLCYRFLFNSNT
Procedure: (§3) The two kinetic methods, Lineweaver–Burk plots and Dixon plots, were used to determine the inhibition mechanism. The α-glucosidase inhibition type was measured at various concentrations of substrate (pNPG, 0.625, 1.25, and 2.5 mM) and several concentrations of test compounds (0.8, 0.4, and 0.16 μM for compound 4; 2, 0.8, and 0.16 μM for 6; 3.17, 1.59, and 0.63 μM for 7; 1.54, 1.04, and 0.62 μM for 8) using Lineweaver–Burk double reciprocal plots. The PTP1B enzyme inhibition type was also measured at various concentrations of substrate (pNPP, 0.5, 1.0, 2.0, and 4.0 mM) and several concentrations of test compounds (4.0, 2.0, and 0.8 μM for compound 4; 2.0, 0.8, and 0.16 μM for 6; 15.87, 7.93, 3.17, and 0.63 μM for 7; 6.17, 3.08, 1.54 and 0.78 μM for 8) using Lineweaver–Burk double reciprocal plots. Dixon plots were used to determine the inhibition constant (Ki) of each compound by testing the effects of substrate and compounds against the α-glucosidase and PTP1B under the same conditions as described above.
(§4) Enzyme kinetic analysis was performed with different concentrations of substrate (pNPG and pNPP) and various concentrations of compounds to determine the type of inhibition on the compounds. Lineweaver–Burk and Dixon plots were used to determine the type of inhibition in enzyme kinetics. Each line of inhibitors intersected at the xy-side, indicating mixed-type inhibitors. On the other hand, the lines penetrated the same point on the x-intercept, representing non-competitive inhibitors in Lineweaver–Burk plots, and the Dixon plot was also used to calculate the Ki value for the enzyme inhibitor complex with the value shown on the x-axis indicating the -Ki value.

[3] = tested on: HAS-AGEs formation; test: Inhibition of HSA-AGEs formation; type: biochemical; conditions: mean ± SD, triplicate
Procedure: (§5) The inhibitory activity of HRAR was examined according to previous literature with modifications. First, 150 µL of 100 mM sodium phosphate buffer (pH 6.2), 20 µL of 0.3 mM NADPH as the co-enzyme, 5 µL of the test samples (50, 10, and 2 mg/mL or 100% DMSO), and 20 µL of 10 mM DL-glyceraldehyde as the substrate were added to each of the 96 wells (final volume 200 µL). Quercetin was used as a positive control. The inhibitory activity of AGEs formation was examined according to the modified method. Aminoguanidine hydrochloride was used as a positive control for the AGEs formation inhibition assay.

[4] = ONOO− scavenging activity (DHR123); conditions: mean ± SD, triplicate; read-out: Peroxynitirite IC50
Procedure: ONOO^− scavenging activity was measured using the method in previous literature involving measuring highly fluorescent rhodamine 123 that is converted from non-fluorescent DHR123 in the presence of ONOO^− [49].

[5] = tested on: BSA-AGEs formation; test: Inhibition of BSA-AGEs formation; type: biochemical; conditions: mean ± SD, triplicate
Procedure: as §5

[6] = molecular target: T2, human recombinant aldose reductase (HRAR) (Homo sapiens, UniProt P15121); test: HRAR inhibitory activity; type: biochemical
T2 construct: purchased Wako Chemicals (Osaka, Japan)
Text: as §1
as §5, with “Quercetin was used as a positive control.” left out

[7] = molecular target: α-glucosidase; test: α-Glucosidase enzyme kinetics (Lineweaver–Burk and Dixon plots); type: biochemical, Saccharomyces cerevisiae; conditions: substrate pNPG; for Ki: Dixon plots, read-out: α-Glucosidase Inhibition Constant (Ki); for α-Glucosidase Inhibition Mode: Lineweaver–Burk plots
Procedure: as §3, §4

[8] = molecular target: T1, PTP1B; test: PTP1B inhibitory activity; type: biochemical
Text: as §1, §2

[9] = ABTS radical scavenging activity; conditions: Table 1; mean ± SD, triplicate
Procedure: (§6) The ABTS and DPPH radical scavenging activity of the extract and each fraction obtained from M. bombycis leaves were measured according to previous literature with modifications.

[10] = DPPH radical scavenging activity; conditions: Table 1; mean ± SD, triplicate
Procedure: as §6

[11] = one result of a single experiment, read-out: HRAR IC50
[12] = isolated compounds, mean ± SD, triplicate, read-out: PTP1B IC50

Row | SMILES | IC50 [1] | Ki [2] | PTP1B Inhibition Mode [2] | IC50 [3] | IC50 [4] | IC50 [5] | IC50 [6, 11] | Ki [7] | α-Glucosidase Inhibition Mode [7] | IC50 [8, 12] | other results
1 | Cc1c(C)c2c(c(C)c1O)CCC(C)(C(=O)O)O2 (stereo not shown) [Trolox, 6-hydroxy-2,5,7,8-tetramethylchloman-2-carboxylic acid] | – | – | – | – | – | – | – | – | – | – | ABTS IC50 [9]: 2.72 ± 0.13 µg/mL
2 | Oc1cc(O)cc(/C=C/c2ccc(O)cc2O)c1 [Oxyresveratrol (3), oxyresveratrol] | 2580 ± 230 nM | – | – | 5.38 ± 0.26 µM | 6240 ± 60 nM | 10.4 ± 0.39 µM | – | – | – | – | IC50 [6]: 265 µM; IC50 [8]: 72.9 ± 1.87 µM
3 | Cl.N=C(N)NN [Aminoguanidine, aminoguanidine hydrochloride, reference compound] | – | – | – | 504 ± 14.9 µM | – | 581 ± 28.7 µM | – | – | – | – | BSA-AGEs IC50 ([5]; subfractions of EtOAc fraction, Table S1): 36.73 ± 1.64 µg/mL
4 | CC(C)(S)[C@H](N)C(=O)O [L-Penicillamine, reference compound] | – | – | – | – | 620 ± 170 nM | – | – | – | – | – | –
5 | Oc1cc(O)cc(-c2cc3ccc(O)cc3o2)c1 [Moracin M (5), moracin M] | 6110 ± 530 nM | – | – | 2.07 ± 0.03 µM | 920 ± 130 nM | 2.4 ± 0.18 µM | 238 µM | – | – | 27.1 ± 4.2 µM | –
6 | O=C1O[C@H]([C@@H](O)CO)C(O)=C1O [L-ascorbic acid] | – | – | – | – | – | – | – | – | – | – | DPPH IC50 [10]: 2.82 ± 0.57 µg/mL; ABTS IC50 [9]: 3.38 ± 0.19 µg/mL

Second part, led by results:

Row | IC50 [1] | Ki [2] | PTP1B Inhibition Mode [2] | IC50 [3] | IC50 [4] | IC50 [5] | IC50 [6, 11] | Ki [7] | α-Glucosidase Inhibition Mode [7] | IC50 [8, 12] | SMILES | other results
7 | 1010 ± 170 nM | 1450 nM | Mixed | 6.15 ± 0.25 µM | 2760 ± 250 nM | 13.7 ± 0.55 µM | 26.8 µM | 750 nM | Mixed | 1.69 ± 0.02 µM | Oc1cc(O)cc(-c2cc3cc4c(cc3o2)OC(c2cc(O)cc(O)c2)C(c2ccc(O)cc2O)O4)c1 (stereo not shown) [Austrafuran C (6), austrafuran C] | PTP1B Inhibition Mode ([2]; listed as 6): mixed-type inhibition
8 | 1220 ± 50 nM | 8900 nM | Mixed | – | 8630 ± 20 nM | – | 337 µM | 1840 nM | Mixed | 10.5 ± 0.25 µM | CC(C)=CCc1c(O)ccc(C23Oc4cc(O)ccc4C4CC(C)=CC(c5c(O)cc(-c6cc7ccc(O)cc7o6)cc5O2)C43)c1O (stereo not shown) [Mulberrofuran F (7), mulberrofuran F] | PTP1B Inhibition Mode ([2]; listed as 7): mixed-type inhibition
9 | 440 ± 30 nM | 1540 nM | Mixed | 7.98 ± 0.62 µM | 2610 ± 130 nM | 9.44 ± 0.18 µM | < 4 µM | 190 nM | Mixed | 2.5 ± 0.17 µM | Oc1cc(O)cc(-c2cc3c4c(c(O)cc3o2)OC(c2ccc(O)cc2O)C4c2cc(O)cc(O)c2)c1 (stereo not shown) [Macrourin B (4), macrourin B] | PTP1B Inhibition Mode ([2]; listed as 4): mixed-type inhibition
10 | 980 ± 30 nM | 4410 nM | Non-competitive | 113 ± 3.62 µM | 3030 ± 530 nM | 137.6 ± 0.33 µM | 265 µM | 1710 nM | Mixed | 2.06 ± 0.39 µM | CC(C)=CCc1c(O)ccc(C(=O)[C@H]2[C@@H](c3c(O)cc(-c4cc5ccc(O)cc5o4)cc3O)C=C(C)C[C@@H]2c2ccc(O)cc2O)c1O [Chalcomoracin (8), chalcomoracin] | PTP1B Inhibition Mode ([2]; listed as 8): non-competitive-type inhibition
